Measurements reported in article PMC5788402, “Impact of Target Warhead and Linkage Vector on Inducing Protein Degradation: Comparison of Bromodomain and Extra-Terminal (BET) Degraders Derived from Triazolodiazepine (JQ1) and Tetrahydroquinoline (I-BET726) BET Inhibitor Scaffolds” (Journal of Medicinal Chemistry, 2017).

Tests used:
[1] = target: Brd4^BD2 (Homo sapiens, UniProt O60885); assay: ITC binary titration, Brd4^BD2 into PROTAC; assay type: binding; details: Brd4^BD2 in syringe, PROTAC in cell
[2] = tested on: BET proteins Brd2, Brd3, Brd4; assay: BET degradation profile in HeLa cells; assay type: cell-based
[3] = target: Brd2BD2 (Homo sapiens, UniProt P25440); assay: ITC binary titration, Brd2BD2 into 10; assay type: binding; details: Brd2BD2 in syringe
Sequence of Brd2BD2 (P25440 344-453 limits assumed): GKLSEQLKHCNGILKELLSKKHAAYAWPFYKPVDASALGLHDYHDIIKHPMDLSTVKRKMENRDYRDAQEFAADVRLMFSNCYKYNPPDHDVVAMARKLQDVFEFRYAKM
Text: (§1) Bromodomain and VCB complex constructs and protein preparation were described in a previous publication.[5] Wild-type version of human proteins VHL (UniProt accession number P40337), ElonginC (Q15369), ElonginB (Q15370), and the bromodomains of Brd2 (P25440), Brd3 (Q15059), and Brd4 (O60885) were used for all protein expression. In brief, the His6-tagged constructs were transformed into E. coli BL21(DE3) and induced with IPTG to produce the desired proteins. […] After cleaving the His-tag by TEV protease, a second Ni affinity column purification was performed to obtain tag-free protein in the flow-through. VCB was then additionally purified by anion exchange using MonoQ (GE Healthcare). For all proteins, purity was further polished by gel filtration chromatography.
(§2) Titrations were performed on an ITC200 microcalorimeter (GE Healthcare) as previously reported.[5] The titrations were in ITC buffer (20 mM Bis-Tris propane, 150 mM NaCl, 1 mM tris(2-carboxyethyl)phosphine (TCEP), pH 7.4), supplemented with either 0.2% or 3% DMSO and consisted of 19 injections of 2 μL of protein solution at a rate of 0.5 μL/s at 120 s time intervals. An initial injection of protein (0.4 μL) was made and discarded during data analysis. All experiments were performed at 25 °C, while stirring at 600 rpm. PROTACs were diluted from a 10 mM DMSO stock solution to 20 μM in ITC buffer with the final concentration of DMSO to be 0.2% for triazolodiazepine-based PROTAC or 3% for tetrahydroquinoline-based PROTAC. Bromodomain protein in the same buffer was titrated into the PROTAC in the cell. At the end of the titration, the excess of solution was removed from the cell, the syringe was washed and dried, and VCB complex (168 μM, in the same buffer) was loaded in the syringe and titrated into the complex of PROTAC–bromodomain. The concentration of the complex in the cell (C) after the first titration (16.8 μM) was calculated as follows: [drawing 1] where C0 is the initial concentration of the PROTAC in the cell (20 μM), Vcell is the volume of the sample cell (200.12 μL), and Vinj is the volume of titrant injected during the first titration (38.4 μL). Titrations for the binary complex PROTAC–VCB were performed in the same manner with VCB titrated into 16.8 μM PROTAC in the cell. […] The data were fitted to a single-binding-site model to obtain the stoichiometry n, the dissociation constant Kd, and the enthalpy of binding ΔH using the Microcal LLC ITC200 Origin software provided by the manufacturer.
(§3) Table S1. ITC results for the formation of binary and ternary complexes between 10, BET Bromodomain and VCB
(§4) Protein in Species in cell Kd (nM) ΔG (kcal × ΔH (kcal × -TΔS (kcal N α ΔpKd
(§5) Syringe mol-1) mol-1) × mol-1)
(§6) Titrations were performed at 25°C in duplicate except for VCB into 10, which was performed in quadruplicate.
(§7) Values reported are the mean ± s.e.m.

[4] = target: VCB / Brd4^BD2 ternary complex (Homo sapiens, UniProt O60885+P40337); assay: ITC ternary titration, VCB into Brd4^BD2–PROTAC complex; assay type: binding
[5] = target: Brd2BD1 (Homo sapiens, UniProt P25440); assay: ITC binary titration, Brd2BD1 into 10; assay type: binding; details: Brd2BD1 in syringe
Sequence of Brd2BD1 (P25440 74-180 limits assumed): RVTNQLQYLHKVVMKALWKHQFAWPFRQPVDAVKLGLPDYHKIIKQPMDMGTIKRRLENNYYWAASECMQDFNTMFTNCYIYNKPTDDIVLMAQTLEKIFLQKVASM
Text: as §1, §2, §3, §4, §5, §6, §7

[6] = target: VCB / Brd4BD1 ternary complex (Homo sapiens, UniProt O60885+P40337); assay: ITC ternary titration, VCB into Brd4BD1:10; assay type: binding
Text: as §1, §2, §3, §4, §5, §6, §7

[7] = target: VCB / Brd3BD2 ternary complex (Homo sapiens, UniProt P40337+Q15059); assay: ITC ternary titration, VCB into Brd3BD2:10; assay type: binding
Text: as §1, §2, §3, §4, §5, §6, §7

[8] = target: Brd3BD2 (Homo sapiens, UniProt Q15059); assay: ITC binary titration, Brd3BD2 into 10; assay type: binding; details: Brd3BD2 in syringe
Sequence of Brd3BD2 (Q15059 306-415 limits assumed): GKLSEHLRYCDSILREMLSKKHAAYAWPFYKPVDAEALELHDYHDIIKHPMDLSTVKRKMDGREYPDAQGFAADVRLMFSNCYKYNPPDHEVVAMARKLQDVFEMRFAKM
Text: as §1, §2, §3, §4, §5, §6, §7

[9] = target: VCB / Brd3BD1 ternary complex (Homo sapiens, UniProt P40337+Q15059); assay: ITC ternary titration, VCB into Brd3BD1:10; assay type: binding
Text: as §1, §2, §3, §4, §5, §6, §7

[10] = target: Brd4BD1 (Homo sapiens, UniProt O60885); assay: ITC binary titration, Brd4BD1 into 10; assay type: binding; details: Brd4BD1 in syringe
Text: as §1, §2, §3, §4, §5, §6, §7

[11] = target: VCB / Brd2BD1 ternary complex (Homo sapiens, UniProt P25440+P40337); assay: ITC ternary titration, VCB into Brd2BD1:10; assay type: binding
Text: as §1, §2, §3, §4, §5, §6, §7

[12] = target: Brd3BD1 (Homo sapiens, UniProt Q15059); assay: ITC binary titration, Brd3BD1 into 10; assay type: binding; details: Brd3BD1 in syringe
Sequence of Brd3BD1 (Q15059 34-140 limits assumed): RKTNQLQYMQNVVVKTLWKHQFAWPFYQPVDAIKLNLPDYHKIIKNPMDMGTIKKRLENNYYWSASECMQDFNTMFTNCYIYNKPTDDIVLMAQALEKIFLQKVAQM
Text: as §1, §2, §3, §4, §5, §6, §7

[13] = target: VCB / Brd2BD2 ternary complex (Homo sapiens, UniProt P25440+P40337); assay: ITC ternary titration, VCB into Brd2BD2:10; assay type: binding
Text: as §1, §2, §3, §4, §5, §6, §7

[14] = target: VHL-EloC-EloB protein (VCB) (Homo sapiens, UniProt P40337); assay: ITC binary titration, VCB into PROTAC; assay type: binding; details: VCB in syringe, PROTAC in cell

stoichiometry N [1]: 0.86 ± 0.06
-TΔS [3]: -1.19 ± 0.07 kcal/mol
N [3]: 0.84 ±0.05
ΔG [3]: -11.3 ± 0.01 kcal/mol
ΔH [3]: -10.1 ± 0.1 kcal/mol
Kd ([3]; 10 in cell, 25°C): 5 ± 0.1 nM
α ([4]; cooperativity, ratio between binary and ternary Kd, Brd4^BD2): 0.6
cooperativity (α) Brd4–BD2 ([4]; ternary complex formation with VCB and Brd4^BD2, as tabulated in Table 2): 0.59
ΔpKd ± uncertainty ([4]; ternary vs binary, Brd4^BD2): –0.22 ± 0.08
stoichiometry N ([4]; ternary, VCB in syringe, Brd4^BD2–PROTAC in cell): 0.87 ± 0.02
-TΔS [5]: 1.86 ± 0.02 kcal/mol
N [5]: 1.00 ±0.08
ΔG [5]: -10.0 ± 0.2 kcal/mol
ΔH [5]: -11.9 ± 0.2 kcal/mol
Kd ([5]; 10 in cell, 25°C): 45 ± 13 nM
α ([6]; cooperativity, Brd4BD1): 0.5
ΔpKd ([6]; ternary vs binary, Brd4BD1): 0.29 ±0.14
Kd ([6]; ternary, VCB in syringe, Brd4BD1:10 in cell, 25°C): 221 ± 65 nM
-TΔS ([6]; ternary, VCB into Brd4BD1:10): -6.63 ± 0.09 kcal/mol
N ([6]; ternary, VCB into Brd4BD1:10): 0.70 ±0.07
ΔG ([6]; ternary, VCB into Brd4BD1:10): -9.11 ± 0.18 kcal/mol
ΔH ([6]; ternary, VCB into Brd4BD1:10): -2.47 ± 0.09 kcal/mol
α ([7]; cooperativity, Brd3BD2): 0.3
ΔpKd ([7]; ternary vs binary, Brd3BD2): 0.58 ±0.14
Kd ([7]; ternary, VCB in syringe, Brd3BD2:10 in cell, 25°C): 434 ± 128 nM
-TΔS ([7]; ternary, VCB into Brd3BD2:10): -1.37 ± 0.54 kcal/mol
N ([7]; ternary, VCB into Brd3BD2:10): 1.03 ±0.15
ΔG ([7]; ternary, VCB into Brd3BD2:10): -8.71 ± 0.18 kcal/mol
ΔH ([7]; ternary, VCB into Brd3BD2:10): -7.33 ± 0.36 kcal/mol
-TΔS [8]: 3.0 ± 0.1 kcal/mol
N [8]: 1.02 ±0.09
ΔG [8]: -10.9 ± 0.3 kcal/mol
ΔH [8]: -13.9 ± 0.4 kcal/mol
Kd ([8]; 10 in cell, 25°C): 11 ± 5 nM
α ([9]; cooperativity, Brd3BD1): 0.7
ΔpKd ([9]; ternary vs binary, Brd3BD1): 0.14 ±0.09
Kd ([9]; ternary, VCB in syringe, Brd3BD1:10 in cell, 25°C): 152 ± 30 nM
-TΔS ([9]; ternary, VCB into Brd3BD1:10): -5.18 ± 0.14 kcal/mol
N ([9]; ternary, VCB into Brd3BD1:10): 1.03 ±0.18
ΔG ([9]; ternary, VCB into Brd3BD1:10): -9.31 ± 0.12 kcal/mol
ΔH ([9]; ternary, VCB into Brd3BD1:10): -4.13 ± 0.02 kcal/mol
-TΔS [10]: 1.6 ± 0.7 kcal/mol
N [10]: 0.73 ±0.02
ΔG [10]: -10.3 ± 0.4 kcal/mol
ΔH [10]: -11.9 ± 0.3 kcal/mol
Kd ([10]; 10 in cell, 25°C): 39 ± 24 nM
α ([11]; cooperativity, Brd2BD1): 0.3
ΔpKd ([11]; ternary vs binary, Brd2BD1): 0.41 ±0.23
-TΔS ([11]; ternary, VCB into Brd2BD1:10): -4.19 ± 0.92 kcal/mol
N ([11]; ternary, VCB into Brd2BD1:10): 0.99 ±0.08
ΔG ([11]; ternary, VCB into Brd2BD1:10): -8.95 ± 0.31 kcal/mol
ΔH ([11]; ternary, VCB into Brd2BD1:10): -4.76 ± 0.62 kcal/mol
-TΔS [12]: 3.2 ± 0.2 kcal/mol
N [12]: 0.98 ±0.04
ΔG [12]: -10.1 ± 0.1 kcal/mol
ΔH [12]: -13.3 ± 0.4 kcal/mol
Kd ([12]; 10 in cell, 25°C): 39 ± 8 nM
α ([13]; cooperativity, Brd2BD2): 0.3
ΔpKd ([13]; ternary vs binary, Brd2BD2): 0.52 ±0.17
Kd ([13]; ternary, VCB in syringe, Brd2BD2:10 in cell, 25°C): 384 ± 145 nM
-TΔS ([13]; ternary, VCB into Brd2BD2:10): -1.02 ± 0.61 kcal/mol
N ([13]; ternary, VCB into Brd2BD2:10): 0.73 ±0.02
ΔG ([13]; ternary, VCB into Brd2BD2:10): -8.80 ± 0.23 kcal/mol
ΔH ([13]; ternary, VCB into Brd2BD2:10): -7.77 ± 0.37 kcal/mol
stoichiometry N [14]: 0.92 ± 0.15
SMILES: CC(=O)N1c2ccc(-c3ccc(C(=O)NCCOCCOCCOCCOCC(=O)N[C@H](C(=O)N4C[C@H](O)C[C@H]4C(=O)NCc4ccc(-c5scnc5C)cc4)C(C)(C)C)cc3)cc2[C@H](Nc2ccc(Cl)cc2)C[C@@H]1C [compound 10, (2S,4R)-1-((S)-1-(4-((2S,4R)-1-Acetyl-4-((4-chlorophenyl)amino)-2-methyl-1,2,3,4-tetrahydroquinolin-6-yl)phenyl)-18-(tert-butyl)-1,16-dioxo-5,8,11,14-tetraoxa-2,17-diazanonadecan-19-oyl)-4-hydroxy-N-(4-(4-methylthiazol-5-yl)benzyl)pyrrolidine-2-carboxamide]
window of concentration for selective degradation of BRD3/4 [2]: 30 to 100 nM
concentration with increased levels of BET proteins (hook effect) ([2]; 24 h): 1 to 10 µM
intra-BET degradation selectivity ([2]; 24 h): depletion selectivity for Brd4 and Brd3 over Brd2
